According to PMC11462456 (Chemical Science, 2024):

Legend:
[1] = molecular target: T1, CRBN (Homo sapiens, UniProt Q96SW2); assay: E3 ligase homo-degradation by western blot, CRBN; assay type: cell-based; conditions: HEK293 cells, 4 h, 0.1, 1 and 10 μM
T1 construct: western blot analysis of the levels of CRBN and VHL E3 ligase in cell lysate; endogenous in cells; host or cells: HEK293 (ATCC)
Text: (§1) 4. Biological experiments
(§2) Primary antibodies used for western blotting included anti-human BRD2(1:2000, rabbit monoclonal, Abcam, ab139690), anti-human BRD3 (1:1000, rabbit monoclonal, Abcam, ab264420), anti-human BRD4 (E2A7X) (1:1000, rabbit monoclonal, Cell Signaling Technology, #13440), anti-human VHL (1:1000, rabbit polyclonal, Cell Signaling Technology, #68547), anti-human CRBN (D8H3S) (1:1000, rabbit polyclonal, Cell Signaling Technology, #71810), anti-human alpha Tubulin, clone B-5-1-2 (1:5000, mouse monoclonal, Merck Life Science, # 32-2500).Secondary antibodies used for western blot included: anti-mouse horseradish peroxidase-linked antibody (1:3000, sheep, GE Healthcare Life Sciences, #NA931V), and anti-rabbit horseradish peroxidase-linked antibody (1:8000, donkey, GE Healthcare Life Sciences, #NA934V). Reagent for degradation assay and compounds […]
dr. Serge Van Calenbergh, Ghent University).
4.2 Cell lines and culture
HEK293, A549, SKOV-3, HCT116 cells (ATCC)were grown in DMEM (Gibco),and all cells were supplemented with 10% (v/v) fetal bovine serum (FBS) (Sigma), […] penicillin/streptomycin solution (Thermo Fisher Scientific) and maintained at 37 °C and 5% CO2 in a humidified atmosphere. All cells used were tested monthly using the Mycoalert Mycoplasma Detection Kit (cat. no. LT07-318, Lonza) to exclude mycoplasma contamination.
4.3 Degradation assays by Western blot
General method of Western blot: Lysates were sonicated and centrifuged at 4 °C at 20000 g for 15 min, and the supernatants were transferred to new tubes. Protein concentration of cell lysates was measured using the DC Protein Assay kit (BIO-RAD) following manufacturer's instructions. Cell lysates were mixed with reducing sample buffer (0.5 M Tris-HCl (pH 6.8), 43% glycerol, 9.2% SDS, 5% 2-mercaptoethanol, 5% bromophenol blue) and boiled for 5 min at 95°C. […]
(§3) Figure S5 Homo-degradation effect in Dual-ligand PROTACs. […] Subsequently, cell lysates were prepared and the protein levels of CRBN or VHL E3 ligase were assessed by Western blotting. […]

[2] = molecular target: T2, VHL (Homo sapiens, UniProt P40337); assay: E3 ligase homo-degradation by western blot, VHL; assay type: cell-based; conditions: HEK293 cells, 4 h, 1 μM and 10 μM
T2 construct: western blot analysis of the levels of CRBN and VHL E3 ligase in cell lysate; endogenous in cells; host or cells: HEK293 (ATCC)
T2 sequence (P40337 whole entry): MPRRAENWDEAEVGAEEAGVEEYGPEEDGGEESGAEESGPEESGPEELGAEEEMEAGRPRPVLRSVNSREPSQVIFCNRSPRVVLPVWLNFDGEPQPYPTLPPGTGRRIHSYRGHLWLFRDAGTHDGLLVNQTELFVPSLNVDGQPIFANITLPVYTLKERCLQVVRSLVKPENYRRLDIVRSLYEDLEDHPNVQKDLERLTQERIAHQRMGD
Text: as §1, §2
dr. Serge Van Calenbergh, Ghent University). […]
General method of Western blot: Lysates were sonicated and centrifuged at 4 °C at 20000 g for 15 min, and the supernatants were transferred to new tubes. Protein concentration of cell lysates was measured using the DC Protein Assay kit (BIO-RAD) following manufacturer's instructions. […]
as §3

[3] = system: HEK293, A549, HCT116 and SKOV-3; assay: CellTiter-Glo metabolic activity, cell line panel; assay type: cell-based; conditions: 48 h
Method: (§4) 4.4 Cell viability assay on 2D cells cultures
(§5) HEK293, HCT116, A549,andSKOV-3 cells were seeded in 96-well tissue culture plates at a density of 2000-3000 cells per well in 100 µl of growth medium and incubated overnight at 37 °C with 5% CO2. The following day, the cells were treated with various concentrations of compounds or 0.05% DMSO for 48 h. After treatment, add 100 μl of Cell Titer-Glo® 2.0 Reagent (cat. no. G9243, Promega) in each well, then the 96-well plates were put on an orbital shaker for 10 min and then allow the plate to incubate at room temperature for 10-20min to stabilize the luminescent signal. Luminescence readout (Gen5 Data Analysis Software v3.08.01) was performed to record luminescence.
(§6) (1 picture or pasted object on this page, not shown here)

[4] = molecular target: T3, BRD4 (Homo sapiens, UniProt O60885); assay: Western blot degradation of BRD4 in HEK293 cells; assay type: cell-based; conditions: HEK293 cells, 4 h, 0.1 μM to 1 nM, Fig. S2
T3 construct: BRD2, BRD3 and BRD4 protein levels were measured by western blot; endogenous in cells; host or cells: HEK293 (ATCC)
Method: HEK293, A549, SKOV-3, HCT116 cells (ATCC)were grown in DMEM (Gibco),and all cells were supplemented with 10% (v/v) fetal bovine serum (FBS) (Sigma), 100 mg/mL penicillin/streptomycin solution (Thermo Fisher Scientific) and maintained at 37 °C and 5% CO2 in a humidified atmosphere. All cells used were tested monthly using the Mycoalert
at 95°C. Proteins were separated by SDS–PAGE (SDS polyacrylamide gel electrophoresis) with 25–40 µg of total protein per well, transferred to 0.2-μm-pore nitrocellulose membranes (BIO-RAD), then blocked in 5%(w/v) milk in PBS and 0.5% Tween-20, and incubated overnight at 4°C with primary antibodies described in section 4.1. Secondary antibodies were added for 1h at room temperature after 3 times washing with blocking buffer. After 6 times of washing
with PBS (Thermo Fisher Scientific) and 0.5% Tween-20, Blots were detected using the Clarity Western ECL Substrate (BIO-RAD) and visualized on iBright CL 750 (Thermo Fisher Scientific) and images were analyzed using iBright Firmware 1.7.0.
4.3.1 Evaluation of the degradation capacity of PROTACs […]

[5] = system: HCT116 cells; assay: CellTiter-Glo 2D metabolic activity assay, HCT116; assay type: cell-based; conditions: Homo sapiens, HCT-116, 2D culture, 48 h
Method: as §4, §5, §6

[6] = system: A549 cells; assay: CellTiter-Glo 2D metabolic activity assay, A549; assay type: cell-based; conditions: Homo sapiens, 2D culture, 48 h
Method: as §4, §5, §6

[7] = Parallel artificial membrane permeability assay (PAMPA); assay type: in vitro ADME; conditions: 10 uM, pH 7.4, four hours
Method: 4.9 Study of membrane permeability of single-ligand and dual-ligand PROTACs Parallel artificial membrane permeability assay (PAMPA) is a non-cell based assay designed to predict passive, transcellular permeability of a test compound through a PVDF membrane filter pretreated with lipid. At a given pH a log Pe (log of effective permeability) can be determined by a UV spectrophotometer. […]
is carried out in the company of Eurofins Panlabs, 6 Research Park Dr. St. Charles, MO 63304, U.S.A. The results are attached as an excel file.
Sample preparation The test compound is prepared from a 10 mM DMSO stock solution and diluted to a single final concentration of 10 uM in donor buffer. The donor solution is placed in contact with the acceptor buffer at a single pH = 7.4 with the membrane in between and the sandwich is incubated for four hours at ambient temperature.
Reference compounds Ketoprofen, propranolol and furosemide. The reference compounds yield log Pe (10-6 cm/s) values that cover the typical range of the assay from high (Propranolol), mid (Ketoprofen) to low (Furosemide) permeability.
Analytical method UV/Vis spectrophotometer
The UV absorption is measured from 250 to 500 nm for both donor and acceptor plate.
Adjustments to the method may be made as necessary to improve detection or UV spectrum.
Data analysis The amount of compound UV absorbance is determined in the donor plate prior to starting the experiment for each compound. The UV absorbance was measured from the (1 picture or pasted object on this page, not shown here) […]
donor and acceptor plate after a four hour incubation time. The log Pe was calculated using […]
4.10 Statistical Analysis.
Data analyses were performed using GraphPad Prism 9 software. The results are presented as the mean ± standard deviation (SD) or standard error of mean (SEM). All statistical analyses were evaluated with one-way analysis of variance (ANOVAs), or unpaired Student’s t-test. The difference was considered statistically significant when P < 0.05.

[8] = system: A549 spheroids; assay: CellTiter-Glo 3D assay on spheroids; assay type: cell-based; conditions: Homo sapiens, 72 h, read-out: EC50, spheroid metabolic activity
Method: 4.5 Cell viability assay on 3D cell cultures
The single cell suspension containing 2.5 ×10^4 cells/ml of A549 or 2 ×10^4 cells/ml of HCT116 were seeded into the U-shaped, 384-well ULA plates (cat. no. MS-9384UZ, S-bio), each well containing 80 μl single cell suspension. The 384-well ULA plates were sealed with Breath-Easy semipermeable tape (cat. no. BEM-1, Diversified Biotech) to prevent evaporation. The spheroids were put into incubator and then cultured at 37 °C and 10% CO2. After 48h of spheroids formation, the spheroids were treated with various concentrations of compounds or 0.05% DMSO. After 72h treatment, each spheroid in the culture medium was pipetted into white micro-96-well plates (cat. no. 236108, ThermoFisher) and an equal volume of Cell Titer-Glo 3D (cat. no. G9683, Promega) reagent was added. Luminescence readouts were the same as described above for 2D culture.

[9] = system: HEK293 cells; assay: CellTiter-Glo 2D metabolic activity assay, HEK293; assay type: cell-based; conditions: Homo sapiens, 2D culture, 48 h
Method: Figure S5 Homo-degradation effect in Dual-ligand PROTACs. HEK293 cells were treated with all synthesized PROTACs or 2V-alkyne/2P-alkyne for 4 hours. Subsequently, cell lysates were prepared and the protein levels of CRBN or VHL E3 ligase were assessed by Western blotting. (A) Representative image of CRBN or VHL E3 ligase homo-degradation was screened for all PROTACs and commercial single-ligand PROTACs at a concentration of 0.1, 1 and 10 µM, respectively (equivalent volume of DMSO as control group). (B) Representative image of CRBN or VHL E3 ligase homo-degradation was screened for 2P-alkyne or 2V-alkyne at a concentration of 0.1, 1 and 10 µM, respectively (equivalent volume of DMSO as control group). Experiments were performed as three independent replicates.
as §4
HEK293, HCT116, A549,andSKOV-3 cells were seeded in 96-well tissue culture plates at a density of 2000-3000 cells per well in 100 µl of growth medium and incubated overnight at 37 °C with 5% CO2. The following day, the cells were treated with various concentrations of compounds or 0.05% DMSO for 48 h. […] Luminescence readout (Gen5 Data Analysis Software v3.08.01) was performed to record luminescence. […]

T1 sequence (Q96SW2 whole entry): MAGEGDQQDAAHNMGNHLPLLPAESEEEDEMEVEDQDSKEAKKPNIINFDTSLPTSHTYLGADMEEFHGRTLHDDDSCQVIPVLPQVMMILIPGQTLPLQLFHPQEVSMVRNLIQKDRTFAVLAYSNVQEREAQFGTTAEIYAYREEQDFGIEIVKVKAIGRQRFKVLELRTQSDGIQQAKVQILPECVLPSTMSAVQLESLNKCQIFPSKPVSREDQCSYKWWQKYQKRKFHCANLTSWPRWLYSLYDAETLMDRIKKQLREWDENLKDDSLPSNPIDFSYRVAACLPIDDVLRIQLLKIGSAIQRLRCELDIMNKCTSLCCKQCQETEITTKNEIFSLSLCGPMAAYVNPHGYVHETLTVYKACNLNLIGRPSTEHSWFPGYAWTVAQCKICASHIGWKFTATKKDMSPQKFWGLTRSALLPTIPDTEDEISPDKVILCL

SMILES	CRBN level (homo-degradation) [1]	metabolic inhibition, comparison [3]	protein degradation potency, controls with similar linker length [4]	other results
Cc1sc2c(c1C)C(c1ccc(Cl)cc1)=N[C@@H](CC(=O)NCCOCCOCCOCCn1cc(CCC(=O)N[C@@H](CC(=O)NCCOCCOCCNc3cccc4c3C(=O)N(C3CCC(=O)NC3=O)C4=O)C(=O)NCCOCCOCCNc3cccc4c3C(=O)N(C3CCC(=O)NC3=O)C4=O)nn1)c1nnc(C)n1-2 (stereo partly drawn) [1J2P]	did not induce any significant decrease of CRBN			
Cc1ncsc1-c1ccc(C(C)NC(=O)C2CC(O)CN2C(=O)C(NC(=O)COCCOCCNC(=O)CC(NC(=O)CCc2cn(CCOCCOCCOCCNC(=O)CC3N=C(c4ccc(Cl)cc4)c4c(sc(C)c4C)-n4c(C)nnc43)nn2)C(=O)NCCOCCOCC(=O)NC(C(=O)N2CC(O)CC2C(=O)NC(C)c2ccc(-c3scnc3C)cc2)C(C)(C)C)C(C)(C)C)cc1 (stereo not drawn) [1J2V]				VHL homo-degradation [2]: did induce homo-degradation of VHL
Cc1sc2c(c1C)C(c1ccc(Cl)cc1)=N[C@@H](CC(=O)NCCOCCOCCNC(=O)C[C@H](NC(=O)COCCOCCOCCOCCn1cc(CNc3cccc4c3C(=O)N(C3CCC(=O)NC3=O)C4=O)nn1)C(=O)NCCOCCOCCNC(=O)C[C@@H]1N=C(c3ccc(Cl)cc3)c3c(sc(C)c3C)-n3c(C)nnc31)c1nnc(C)n1-2 (stereo partly drawn) [2J1P]		higher metabolic inhibition compared to single-ligand PROTACs	could still potently degrade the BRD proteins	
Cc1ncsc1-c1ccc(C(C)NC(=O)C2CC(O)CN2C(=O)C(NC(=O)CCc2cn(CCOCCOCCOCCOCC(=O)NC(CC(=O)NCCOCCOCCNC(=O)CC3N=C(c4ccc(Cl)cc4)c4c(sc(C)c4C)-n4c(C)nnc43)C(=O)NCCOCCOCCNC(=O)CC3N=C(c4ccc(Cl)cc4)c4c(sc(C)c4C)-n4c(C)nnc43)nn2)C(C)(C)C)cc1 (stereo not drawn) [2J1V]		higher metabolic inhibition compared to single-ligand PROTACs	could still potently degrade the BRD proteins	
C#CCCC(=O)N[C@@H](CC(=O)NCCOCCOCCNc1cccc2c1C(=O)N(C1CCC(=O)NC1=O)C2=O)C(=O)NCCOCCOCCNc1cccc2c1C(=O)N(C1CCC(=O)NC1=O)C2=O (stereo partly drawn) [2P-alkyne]	did not induce any degradation of CRBN			
Cc1sc2c(c1C)C(c1ccc(Cl)cc1)=NC(CC(=O)NCCCCNC(=O)COc1cccc3c1C(=O)N(C1CCC(=O)NC1=O)C3=O)c1nnc(C)n1-2 (stereo not drawn) [dBET1]				EC50 [5]: > 10 µM; EC50 [6]: 2 µM; membrane permeability [7]: very limited membrane permeability; EC50 [8]: 7 µM; EC50 [9]: 0.9 µM
